{"source": "paper PMC12015663", "about": "(Cancer Research Communications, 2025)", "system": "sNF96.2", "test": "CellTiter-Glo cell viability assay, sNF96.2", "experimental": "Next, 2 μL of each concentration was added to 198 μL assay medium (PBS) to create a 10× stock. […] MSD ELISA experiments were conducted by WuXi AppTec on whole cell lysates and generated using the Phospho/Total ERK1/2 Assay Whole Cell Lysate Kit (MSD, cat. no. K15107D) according to the manufacturer’s protocol.\nThe in vitro anti-proliferation effect of each of the test compounds was assessed in NF1-LOF and BRAF V600E tumor cell lines cultured as a monolayer using the CellTiter-Glo (CTG) cell viability assay. Cell culture experiments were performed with duplicate wells. Cell concentrations were adjusted for cell density (seeding density of 5,000 for sNF96.2 and MeWo; 6,000 for NCI-H1838; and 2,500 for A375) prior to plating onto a 96-well assay plate and incubated overnight at 37°C with 5% CO2, 95% air, and 100% relative humidity.\nAnti-proliferative activity was assessed after 72 hours of treatment with the test compound or control. […] DMSO was also applied as a control on days 2 and 3. The final DMSO concentration for all test compounds and vehicle control was 0.1%. The A375 BRAF V600E tumor cell line served as a positive control. Preparation of 96-well plates for CTG assays was performed according to the manufacturer’s instructions using the CTG Luminescent Cell Viability Assay Kit (Promega, RRID: SCR_006724, cat. no. G7573). Luminescence was measured on day 3 using the 2104 EnVision Multilabel Reader (PerkinElmer).\nThe inhibition rate of the tested compounds was determined using the following formula: inhibition rate (%) = (1 − [relative luminescence unit (RLU) compound − RLU blank])/(RLU control − RLU blank) × 100. EC50 proliferation values were generated using GraphPad Prism software analysis."}
{"smiles": "C[C@@H](NC(=O)c1ncnc(N)c1Cl)c1ncc(C(=O)Nc2cc(C(F)(F)F)c(Cl)cn2)s1", "note": "[Tovorafenib]", "values": [{"measurement": "EC50", "setting": "SNF96.2, 72 h, read-out: Proliferation EC50", "result": 990, "unit": "nM"}, {"measurement": "sensitivity of cell line", "setting": "sNF96.2, CTG 72 hours", "result": "sensitive"}]}
